Source: patent US11357756B2, “Anesthetic compositions and methods comprising imidazoline compounds” (Warsaw Orthopedic, Inc., priority 2017, dated 2022)
“Also recorded” adds a separate entry of the source. Structures can show the parent of a compound that is named as a salt.

Columns and labels:
sciatic nerve [1] = assay: Evoked compound action potentials (CAP), ipsilateral sciatic nerve after intraneural injection; format: in vivo, male Sprague Dawley (SD) rats; details: for effect of yohimbine pre-administration on elimination of evoked sciatic action potentials by clonidine: 1 mg yohimbine SQ 5 minutes prior to 500 μg intraneural clonidine, HCL
Excerpt: (§1) It is noted that alpha 2 adrenergic receptors are not expressed along the peripheral axons of the nerve. They are on nerve endings and in the spinal cord, where peripheral nerves synapse with interneurons in the dorsal horn. There also may be receptor-mediated effects on immunoinflammatory cells. […] However, there was no effect on the left sciatic nerve.
2 m Amp stimulation in the ankle causes the action potential to propagate up to the tibial nerves and then the sciatic nerve to the dorsal horn of the spinal cord in the rat model.
(§2) Methods: Peripheral nerve function was assessed by evoked action potentials (sciatic nerve) as well as spinal somatosensory evoked potentials in male Sprague Dawley (SD) rats. The tibial nerve was stimulated with 10 milliamperes (mA) constant current delivered with platinum micro-electrodes placed proximal to the internal ankle. Recording electrodes were placed near the proximal sciatic nerve at the sciatic notch (ipsilateral and contralateral nerves) and over the L5 interlaminar space. Measurements were obtained with a Biopac MP36 amplifier and data acquisition unit (Biopac Systems, Goleta, Cal). Following collection of baseline data, test solutions were administered directly into the subparaneural compartment of the right sciatic nerve, approximately 0.5 cm proximal to the tibial/fibular bifurcation, using a Hamilton HPLC injection syringe (20 μl, injection volume). Saline served as the negative control and commercial 2% lidocaine for injection served as the positive control.
(§3) FIG. 21 depicts representative compound action potential traces (CAP), sciatic nerve. A stimulating electrode delivered 10 mAMP current to the distal tibial nerve near the internal ankle, and a recording electrode was placed near the proximal sciatic nerve (at the sciatic notch). Following baseline recordings (top row), test solution was injected directly into the sciatic nerve (20 μl volume). Evoked compound action potentials at 3 minutes and approximately 50 minutes post-injection appear in the middle and bottom rows, respectively.

[2] = tested on: contralateral sciatic nerve; assay: Evoked action potentials, contralateral sciatic nerve; format: in vivo, male Sprague Dawley (SD) rats
Procedure: as §1, §2, §3

incisional pain model = details: no temporal relationship to systemic exposure; cited from earlier work
sciatic nerve [3] = assay: Spinal somatosensory evoked potentials (SSEP) after intraneural sciatic injection; format: in vivo, male Sprague Dawley (SD) rats
Procedure: as §2

[4] = commercial 2% lidocaine for injection, 20 μl intraneural
[5] = intraneural injection, 20 μl, 4 parameter non-linear regression

Structure (SMILES): CCN(CC)CC(=O)Nc1c(C)cccc1C [lidocaine]
- time through which sciatic evoked potential amplitude differed from control (p<0.05) (sciatic nerve [1]; 2% lidocaine): 35 min
- time for which compound action potentials in the ipsilateral sciatic nerve and spine were eliminated (sciatic nerve [1]; [4]): > 20 min
- time over which nerve function recovered (sciatic nerve [1]; positive control 2% lidocaine (Example 1)): approximately one hour
- effect on the contralateral sciatic nerve [2, 4]: did not affect

Structure (SMILES): Clc1cccc(Cl)c1N=C1NCCN1 [clonidine, 2,6-dichloro-N-2-imidazolidinyldenebenzenamine]
- skin concentrations associated with analgesic effect (incisional pain model): ≥ 10 ng/g
- effect on CAP amplitude (sciatic nerve [1]; 50 μg intraneural): no discernable effect
- time through which sciatic evoked potential amplitude differed from control (p<0.05) (sciatic nerve [1]; 100 μg): 7 min
- effect on action potential (CAP) amplitude (sciatic nerve [1]; 100 μg intraneural, versus control, 3 minutes): significant reduction; also recorded: significantly blunted
- time through which sciatic evoked potential amplitude differed from control (p<0.05) (sciatic nerve [1]; 200 μg): 18 min
- effect on action potential (CAP) amplitude (sciatic nerve [1]; 200 μg intraneural): significantly greater reduction
- effect on action potential (CAP) amplitude (sciatic nerve [1]; 200 μg intraneural, listed as clonidine HCL): virtually eliminated
- time through which sciatic evoked potential amplitude differed from control (p<0.05) (sciatic nerve [1]; 500 μg): 35 min
- effect on compound action potentials in the ipsilateral sciatic nerve (sciatic nerve [1]; 500 μg intraneural): reliably eliminated
- doses at which an anesthetic like effect was observed (sciatic nerve [1]; Example 1, clinically relevant doses): < 100 µg
- dose injected directly into nerve that eliminates the action potential (sciatic nerve [1]; Example 2, 2 m Amp stimulation in the ankle): ≥ 50 µg
- duration of effect (sciatic nerve [1]; Example 2, 500 mcg lasts a lot longer than 50 mcg): proportional to dose
- nerve conduction velocity as nerve fibers return to function (sciatic nerve [1]; higher doses): approximately normal
- effect on propagation of action potentials, right sciatic nerve (sciatic nerve [1]; injected directly into the right sciatic nerve of the rat (Example 1)): blocked the ability of the nerve to propagate action potentials to the spinal cord
- EC50 for evoked compound action potentials in the sciatic nerve (sciatic nerve [1]; [5]): 71 µg
- effect on nerve conduction velocity (ipsilateral sciatic nerve) (sciatic nerve [1]; lower doses, fibers that continue to propagate action potentials): modest
- effect on the contralateral sciatic nerve ([2]; 500 μg intraneural): no effect
- effect on the contralateral sciatic nerve ([2]; any dose of clonidine (50-500 μg), including spinal recordings following contralateral stimulation): not affected
- effect on the left sciatic nerve ([2]; injected into the right sciatic nerve (Example 1)): no effect
- animals in which spinal somatosensory evoked potentials were eliminated (sciatic nerve [3]; 500 μg intraneural): 3 out of 4
- EC50 for spinal somatosensory evoked potentials (sciatic nerve [3]; [5]): 118 µg

Structure (SMILES): COC(=O)[C@@H]1[C@H]2C[C@H]3c4[nH]c5ccccc5c4CCN3C[C@@H]2CC[C@@H]1O [yohimbine HCL]
- effect of yohimbine pre-administration on elimination of evoked sciatic action potentials by clonidine (sciatic nerve [1]): unaffected; also recorded: no effect
- effect of yohimbine pre-administration on elimination of evoked sciatic action potentials by clonidine (sciatic nerve [1]; listed as yohimbine): no effect
- effect of yohimbine pre-administration on sciatic nerve block duration by clonidine (sciatic nerve [1]; pre-administration t=(−)10 minutes): did not inhibit
- effect of yohimbine pre-administration on reduction in spinal SEP amplitude by clonidine (sciatic nerve [3]; 1 mg yohimbine prior to 500 μg intraneural clonidine): no effect
